# Reference: US10292412B2, “High solubility natural sweetener compositions” (KRAFT FOODS GLOBAL BRANDS LLC, priority 2012, dated 2019)
# Legend:
# [1] = Example 6: solubility rating of rebaudioside A liquid concentrate after 33 months at 35° F.; assay type: physicochemical; details: water 62.27%, Citric Acid 16.96%, Potassium Citrate 1.4%, Flavor (80%-90% Ethanol) 11%, Reb A 4.4%, Malic Acid 3.89%, Shade 0.08%
# Method: A liquid concentrate sample was prepared using rebaudioside A from Cargill. Samples were measured for solubility as defined in sections 46-47. The samples were rated as 3 on the scale after 33 months at 35° F. The formula is included in the table below: […]
# [2] = Example 2: solubility of rebaudioside A in liquid concentrates with varying water, acid and alcohol; assay type: physicochemical; set-up: scale not given here
# Method: Liquid concentrate formulations were prepared including varying levels of rebaudioside A, water, alcohol, and acid. The solubility was measured at various concentrations of each of the components and the results are included in the tables below: […]
smiles,measurement,setting,value
"C=C1C[C@@]23CC[C@H]4[C@@](C)(CCC[C@@]4(C)C(=O)O[C@@H]4O[C@H](CO)[C@@H](O)[C@H](O)[C@H]4O)[C@@H]2CC[C@]1(O[C@@H]1O[C@H](CO)[C@@H](O)[C@H](O[C@@H]2O[C@H](CO)[C@@H](O)[C@H](O)[C@H]2O)[C@H]1O[C@@H]1O[C@H](CO)[C@@H](O)[C@H](O)[C@H]1O)C3 [Reb A, rebaudioside A]",solubility rating on the scale,[1],3 (a solubility of 3 may be represented by 1% to 5% v/v of pellet)
same,Response 1 Solubility,[2]; Water/Citric Acid/Ethanol (190 Proof)/RebA 0.00/0/92.44/7.5600 ml,5
same,Response 1 Solubility,[2]; Water/Citric Acid/Ethanol (190 Proof)/RebA 0.00/21.92/77.48/0.6048 ml,1
same,Response 1 Solubility,[2]; Water/Citric Acid/Ethanol (190 Proof)/RebA 39.71/32.88/19.85/7.5600 ml,1
same,Response 1 Solubility,[2]; Water/Citric Acid/Ethanol (190 Proof)/RebA 47.96/0/47.96/4.0824 ml,1
same,Response 1 Solubility,[2]; Water/Citric Acid/Ethanol (190 Proof)/RebA 59.56/32.88/0.00/7.5600 ml,2
same,Response 1 Solubility,[2]; Water/Citric Acid/Propylene Glycol/RebA 0.00/0/92.44/7.5600 ml,Insoluble
same,Response 1 Solubility,[2]; Water/Citric Acid/Propylene Glycol/RebA 0.00/0/99.40/0.6048 ml,1
same,Response 1 Solubility,[2]; Water/Citric Acid/Propylene Glycol/RebA 0.00/21.92/77.48/0.6048 ml,Insoluble
same,Response 1 Solubility,[2]; Water/Citric Acid/Propylene Glycol/RebA 33.13/0/66.26/0.6048 ml,1
same,Response 1 Solubility,[2]; Water/Citric Acid/Propylene Glycol/RebA 33.13/10.96/55.30/0.6048 ml,1
same,Response 1 Solubility,[2]; Water/Citric Acid/Propylene Glycol/RebA 39.71/32.88/19.85/7.5600 ml,Insoluble
same,Response 1 Solubility,[2]; Water/Citric Acid/Propylene Glycol/RebA 47.96/0/47.96/4.0824 ml,2
same,Response 1 Solubility,[2]; Water/Citric Acid/Propylene Glycol/RebA 49.65/24.66/19.87/5.8212 ml,2
same,Response 1 Solubility,[2]; Water/Citric Acid/Propylene Glycol/RebA 55.30/10.96/33.13/0.6048 ml,1
same,Response 1 Solubility,[2]; Water/Citric Acid/Propylene Glycol/RebA 59.56/32.88/0.00/7.5600 ml,2
same,Response 1 Solubility,[2]; Water/Citric Acid/Propylene Glycol/RebA 59.61/16.44/19.87/4.0824 ml,2
same,Response 1 Solubility,[2]; Water/Citric Acid/Propylene Glycol/RebA 66.26/0/33.13/0.6048 ml,1
same,Response 1 Solubility,[2]; Water/Citric Acid/Propylene Glycol/RebA 66.52/32.88/0.00/0.6048 ml,1
same,Response 1 Solubility,[2]; Water/Citric Acid/Propylene Glycol/RebA 69.57/8.22/19.87/2.3436 ml,3
same,Response 1 Solubility,[2]; Water/Citric Acid/Propylene Glycol/RebA 79.48/16.44/0.00/4.0824 ml,3
same,Response 1 Solubility,[2]; Water/Citric Acid/Propylene Glycol/RebA 92.44/0/0.00/7.5600 ml,5
same,Response 1 Solubility,[2]; Water/Citric Acid/Propylene Glycol/RebA 99.40/0/0.00/0.6048 ml,3
same,Response 1 Solubility,[2]; Water/Malic Acid/Ethanol (200 Proof)/RebA 0.00/0/92.44/7.5600 ml,Insoluble
same,Response 1 Solubility,[2]; Water/Malic Acid/Ethanol (200 Proof)/RebA 0.00/0/99.40/0.6048 ml,Insoluble
same,Response 1 Solubility,[2]; Water/Malic Acid/Ethanol (200 Proof)/RebA 0.00/10.96/88.44/0.6048 ml,5
same,Response 1 Solubility,[2]; Water/Malic Acid/Ethanol (200 Proof)/RebA 55.30/10.96/33.13/0.6048 ml,1
same,Response 1 Solubility,[2]; Water/Phosphoric Acid/Ethanol (190 Proof)/RebA 0.00/0.00/92.44/7.56 ml,Insoluble
same,Response 1 Solubility,[2]; Water/Phosphoric Acid/Ethanol (190 Proof)/RebA 0.00/0.00/99.40/0.60 ml,Insoluble
same,Response 1 Solubility,[2]; Water/Phosphoric Acid/Ethanol (190 Proof)/RebA 0.00/30.81/61.63/7.56 ml,Insoluble
same,Response 1 Solubility,[2]; Water/Phosphoric Acid/Ethanol (190 Proof)/RebA 0.00/33.13/66.26/0.60 ml,1
same,Response 1 Solubility,[2]; Water/Phosphoric Acid/Ethanol (190 Proof)/RebA 0.00/47.96/47.96/4.08 ml,Insoluble
same,Response 1 Solubility,[2]; Water/Phosphoric Acid/Ethanol (190 Proof)/RebA 0.00/66.26/33.13/0.60 ml,1
same,Response 1 Solubility,[2]; Water/Phosphoric Acid/Ethanol (190 Proof)/RebA 0.00/92.44/0.00/7.56 ml,Insoluble
same,Response 1 Solubility,[2]; Water/Phosphoric Acid/Ethanol (190 Proof)/RebA 0.00/99.40/0.00/0.60 ml,Insoluble
same,Response 1 Solubility,[2]; Water/Phosphoric Acid/Ethanol (190 Proof)/RebA 15.99/15.99/62.21/5.82 ml,2
same,Response 1 Solubility,[2]; Water/Phosphoric Acid/Ethanol (190 Proof)/RebA 15.99/39.10/39.10/5.82 ml,2
same,Response 1 Solubility,[2]; Water/Phosphoric Acid/Ethanol (190 Proof)/RebA 15.99/62.21/15.99/5.82 ml,Insoluble
same,Response 1 Solubility,[2]; Water/Phosphoric Acid/Ethanol (190 Proof)/RebA 30.81/61.63/0.00/7.56 ml,Insoluble
same,Response 1 Solubility,[2]; Water/Phosphoric Acid/Ethanol (190 Proof)/RebA 33.13/0.00/66.26/0.60 ml,1
same,Response 1 Solubility,[2]; Water/Phosphoric Acid/Ethanol (190 Proof)/RebA 33.13/33.13/33.13/0.60 ml,1
same,Response 1 Solubility,[2]; Water/Phosphoric Acid/Ethanol (190 Proof)/RebA 33.13/66.26/0.00/0.60 ml,Insoluble
same,Response 1 Solubility,[2]; Water/Phosphoric Acid/Ethanol (190 Proof)/RebA 39.10/15.99/39.10/5.82 ml,2
same,Response 1 Solubility,[2]; Water/Phosphoric Acid/Ethanol (190 Proof)/RebA 39.10/39.10/15.99/5.82 ml,Insoluble
same,Response 1 Solubility,[2]; Water/Phosphoric Acid/Ethanol (190 Proof)/RebA 47.96/0.00/47.96/4.08 ml,1
same,Response 1 Solubility,[2]; Water/Phosphoric Acid/Ethanol (190 Proof)/RebA 47.96/47.96/0.00/4.08 ml,Insoluble
same,Response 1 Solubility,[2]; Water/Phosphoric Acid/Ethanol (190 Proof)/RebA 61.63/0.00/30.81/7.56 ml,4
same,Response 1 Solubility,[2]; Water/Phosphoric Acid/Ethanol (190 Proof)/RebA 61.63/30.81/0.00/7.56 ml,Insoluble
same,Response 1 Solubility,[2]; Water/Phosphoric Acid/Ethanol (190 Proof)/RebA 62.21/15.99/15.99/5.82 ml,5
